Reference: patent publication US20230049619A1, “SIGMA-1 RECEPTOR LIGANDS AND USES THEREOF” (UNIVERSITE DE STRASBOURG, priority 2019, published 2023)
Counter-ions that a name gives are not always drawn.

Target: T1, sigma-1 receptor (Homo sapiens, UniProt Q99720)
T1 construct: incubing Jurkat cell membranes ([…] protein per tube) with [^3H](+)-pentazocine; endogenous in cells; host or cells: Jurkat cell membranes
Test: sigma-1 receptor binding assay ([3H](+)-pentazocine displacement, Jurkat cell membranes)
Details: [3H](+)-pentazocine 15 nM, 37° C., 2 hours; for inhibition at 0.01 µM / sigma-1 receptor % inhibition 10 nM: tested compound 10 nM
Procedure: The sigma-1 receptor binding assays were performed according to Ganapathy et al. (J Pharmacol Exp Ther 28:251-60, 1999). The sigma-1 receptor binding assay was carried out by incubing Jurkat cell membranes ([…] protein per tube) with [^3H](+)-pentazocine a selective sigma-1 radiotracer (15 nM) and a range of concentration of tested compounds, at 37° C. for 2 hours in 5 mM tris/HCl buffer (pH=7.4). The inhibition of [^3H](+)-pentazocine binding assay is mainly used to determine the inhibition constant (Ki) of potential sigma-1 receptor ligands. These assays are performed with a single concentration of [^3H](+)-pentazocine at a concentration near its KD and increasing concentrations of non-radioactive ligands.

T1 sequence (Q99720 whole entry): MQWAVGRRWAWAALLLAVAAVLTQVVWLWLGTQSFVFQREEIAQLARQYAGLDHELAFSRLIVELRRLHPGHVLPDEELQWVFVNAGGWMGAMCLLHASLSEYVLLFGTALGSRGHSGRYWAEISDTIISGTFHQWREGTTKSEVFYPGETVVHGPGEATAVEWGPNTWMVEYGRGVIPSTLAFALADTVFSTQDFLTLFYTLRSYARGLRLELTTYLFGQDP

SMILES | inhibition at 0.01 µM [%] | further results
O=c1c(-c2ccccc2)ccnn1C1CCN(Cc2ccccc2)CC1 [cpd 1, 2-(1-benzylpiperidin-4-yl)-4-phenylpyridazin-3(2H)-one hydrochloride] | 59.9 | inhibition at 0.1 µM (tested compound 100 nM): 97.1%
O=c1cc(-c2ccccc2)cnn1C1CCN(Cc2ccccc2)CC1 [cpd 2, 2-(1-benzylpiperidin-4-yl)-5-phenylpyridazin-3(2H)-one hydrochloride] | 86 | inhibition at 0.1 µM (tested compound 100 nM): 90%
O=c1c(-c2ccccc2)ccnn1C1CCN(CCc2ccccc2)CC1 [cpd 3, 4-phenyl-2-[1-(2-phenylethyl)piperidin-4-yl]-2,3-dihydropyridazin-3-one hydrochloride] | 41.9 | –
O=c1c(-c2ccccc2)ccnn1C1CCN(CC2CC2)CC1 [cpd 4, 2-[1-(cyclopropylmethyl)piperidin-4-yl]-4-phenyl-2,3-dihydropyridazin-3-one hydrochloride] | 13.5 | –
Cl.O=c1c(-c2ccccc2)ccnn1C1CCN(CC2CCCC2)CC1 [cpd 5, 2-[1-(cyclopentylmethyl)piperidin-4-yl]-4-phenyl-2,3-dihydropyridazin-3-one hydro-chloride] | – | sigma-1 receptor % inhibition 10 nM: 60.7%
O=c1c(-c2ccccc2)ccnn1C1CCCN(Cc2ccccc2)CC1 (centres unmarked) [cpd 6, 2-(1-benzylazepan-4-yl)-4-phenyl-2,3-dihydropyridazin-3-one hydrochloride] | 81.4 | –
O=c1cc(-c2ccccc2)cnn1CC1CCN(Cc2ccccc2)CC1 [cpd 8, 2-((1-benzylpiperidin-4-yl)methyl)-5-phenylpyridazin-3(2H)-one hydrochloride] | 31.5 | –
O=c1c(-c2ccccc2)ccnn1CC1CCCN(Cc2ccccc2)C1 (centres unmarked) [cpd 9, 2-[(1-benzylpiperidin-3-yl)methyl]-4-phenyl-2,3-dihydropyridazin-3-one hydrochloride] | 38.8 | –
O=c1c(-c2ccccc2)ccnn1CC1CCN(CCc2ccccc2)CC1 [cpd 10, 2-((1-phenethylpiperidin-4-yl)methyl)-4-phenylpyridazin-3(2H)-one hydrochloride] | 29.2 | –
CCCN1CCC(Cn2nccc(-c3ccccc3)c2=O)CC1 [cpd 11, 4-phenyl-2-((1-propylpiperidin-4-yl)methyl)pyridazin-3(2H)-one hydrochloride] | 3.9 | –
O=c1c(-c2ccccc2)ccnn1CC1CCN(Cc2ccc(Cl)cc2)CC1 [cpd 12, 2-((1-(4-chlorobenzyl)piperidin-4-yl)methyl)-4-phenylpyridazin-3(2H)-one hydrochloride] | 73.1 | –
O=c1c(-c2ccccc2)ccnn1CC1CCN(CC2CCCCC2)CC1 [cpd 13, 2-((1-(cyclohexylmethyl)piperidin-4-yl)methyl)-4-phenylpyridazin-3(2H)-one hydrochloride] | 59.3 | –
O=c1c(-c2ccccc2)ccnn1CC1CCN(Cc2ccncc2)CC1 [cpd 14, 4-phenyl-2-((1-(pyridin-4-ylmethyl)piperidin-4-yl)methyl)pyridazin-3(2H)-one hydrochloride] | 16.4 | –
O=c1c(-c2ccccc2)ccnn1CC1CCN(CC2CCOCC2)CC1 [cpd 15, 4-phenyl-2-((1-((tetrahydro-2H-pyran-4-yl)methyl)piperidin-4-yl)methyl)pyridazin-3(2H)-one dihydrochloride] | 19.3 | –
Cl.Cl.O=c1c(-c2ccccc2)ccnn1CC1CCN(Cc2cnc[nH]2)CC1 [cpd 16, 2-{[1-(1H-imidazol-5-ylmethyl)piperidin-4-yl]methyl}-4-phenyl-2,3-dihydropyridazin-3-one dihydro-chloride] | – | sigma-1 receptor % inhibition 10 nM: 3.8%
O=c1c(-c2ccccc2)ccnn1CC1CCN(Cc2ccc(O)cc2)CC1 [cpd 18, 2-((1-(4-hydroxybenzyl)piperidin-4-yl)methyl)-4-phenylpyridazin-3(2H)-one hydrochloride] | 16.7 | –
O=c1c(-c2ccccc2)ccnn1CC1CCN(CCO)CC1 [cpd 20, 2-((1-(2-hydroxyethyl)piperidin-4-yl)methyl)-4-phenylpyridazin-3(2H)-one hydrochloride] | 18.9 | –
O=c1c(-c2ccccc2)ccnn1CC1CCN(CC(O)c2ccc(F)cc2)CC1 (centres unmarked) [cpd 23, 2-((1-(2-(4-fluorophenyl)-2-hydroxyethyl)piperidin-4-yl)methyl)-4-phenylpyridazin-3(2H)-one hydrochloride] | 1.3 | –
O=C(CN1CCC(Cn2nccc(-c3ccccc3)c2=O)CC1)c1ccc(F)cc1 [cpd 24, 2-((1-(2-(4-fluorophenyl)-2-oxoethyl)piperidin-4-yl)methyl)-4-phenylpyridazin-3(2H)-one hydrochloride] | 6.2 | –
O=c1c(-c2ccccc2)ccnn1CC1CCN(CC(O)c2ccccc2)CC1 (centres unmarked) [cpd 25, 2-((1-(2-hydroxy-2-phenylethyl)piperidin-4-yl)methyl)-4-phenylpyridazin-3(2H)-one hydrochloride] | 15.3 | –

SMILES | inhibition at 0.01 µM [%] | further results
O=c1c(-c2ccccc2)ccnn1CCC1CCN(Cc2ccccc2)CC1 [cpd 26, 2-(2-(1-benzylpiperidin-4-yl)ethyl)-4-phenylpyridazin-3(2H)-one hydrochloride] | 80.9 | inhibition at 0.1 µM (tested compound 100 nM): 95%
O=c1cc(-c2ccccc2)cnn1CCC1CCN(Cc2ccccc2)CC1 [cpd 27, 2-(2-(1-benzylpiperidin-4-yl)ethyl)-5-phenylpyridazin-3(2H)-one hydrochloride] | 61.7 | –
CC(C1CCN(Cc2ccccc2)CC1)n1nccc(-c2ccccc2)c1=O (centres unmarked) [cpd 28, 2-(1-(1-benzylpiperidin-4-yl)ethyl)-4-phenylpyridazin-3(2H)-one hydro chloride] | 37 | –
O=c1c(-c2ccccc2)ccnn1CC1(O)CCN(Cc2ccccc2)CC1 [cpd 29, 2-((1-benzyl-4-hydroxypiperidin-4-yl)methyl)-4-phenylpyridazin-3(2H)-one hydrochloride] | 10.6 | –
COc1ccc(-c2ccnn(C3CCN(Cc4ccccc4)CC3)c2=O)cc1 [cpd 30, 2-(1-benzylpiperidin-4-yl)-4-(4-methoxyphenyl)pyridazin-3(2H)-one hydrochloride] | – | inhibition at 0.1 µM (tested compound 100 nM): 75.8%
O=c1c(-c2ccc(C(F)(F)F)cc2)ccnn1C1CCN(Cc2ccccc2)CC1 [cpd 31, 2-(1-benzylpiperidin-4-yl)-4-[4-(trifluoromethyl)phenyl]-2,3-dihydropyridazin-3-one hydro chloride] | – | inhibition at 0.1 µM (tested compound 100 nM): 80%
Cl.O=c1c(-c2ccc(Cl)cc2)ccnn1C1CCN(Cc2ccccc2)CC1 [cpd 32] | – | sigma-1 receptor % inhibition 100 nM (tested compound 100 nM): 91.1%
O=c1c(-c2ccccc2Cl)ccnn1CC1CCN(Cc2ccccc2)CC1 [cpd 33, 2-[(1-benzylpiperidin-4-yl)methyl]-4-(2-chlorophenyl)-2,3-dihydropyridazin-3-one hydrochloride] | 51.2 | –
O=c1c(-c2ccc(F)cc2)ccnn1CC1CCN(Cc2ccccc2)CC1 [cpd 35, 2-((1-benzylpiperidin-4-yl)methyl)-4-(4-fluorophenyl)pyridazin-3(2H)-one hydrochloride] | 44.6 | –
O=c1c(CCc2ccccc2)ccnn1CC1CCN(Cc2ccccc2)CC1 [cpd 36, 2-((1-benzylpiperidin-4-yl)methyl)-4-phenethylpyridazin-3(2H)-one] | 44.2 | –
O=c1c(CCc2ccccc2)ccnn1C1CCN(Cc2ccccc2)CC1 [cpd 37, 2-(1-benzylpiperidin-4-yl)-4-(2-phenylethyl)-2,3-dihydropyridazin-3-one hydrochloride] | 90 | inhibition at 0.1 µM (tested compound 100 nM): 100%
O=c1c(N2CCCCC2)ccnn1C1CCN(Cc2ccccc2)CC1 [cpd 38, 2-(1-benzylpiperidin-4-yl)-4-(piperidin-1-yl)-2,3-dihydropyridazin-3-one hydrochloride] | 52.3 | inhibition at 0.1 µM (tested compound 100 nM): 90%
Cl.O=c1c(N2CCCCC2)ccnn1CC1CCN(Cc2ccccc2)CC1 [cpd 39, 2-[(1-benzylpiperidin-4-yl)methyl]-4-(piperidin-1-yl)-2,3-dihydropyridazin-3-one hydro-chloride] | – | sigma-1 receptor % inhibition 10 nM: 51.8%
O=c1c(N2CCOCC2)ccnn1CC1CCN(Cc2ccccc2)CC1 [cpd 40, 2-((1-benzylpiperidin-4-yl)methyl)-4-morpholinopyridazin-3(2H)-one hydrochloride] | 8.2 | –
O=c1c(N2CCN(c3ccccc3)CC2)ccnn1CC1CCN(Cc2ccccc2)CC1 [cpd 41, 2-((1-benzylpiperidin-4-yl)methyl)-4-(4-phenylpiperazin-1-yl)pyridazin-3(2H)-one hydrochloride] | 5.2 | –
O=c1c(N2CCc3ccccc3C2)ccnn1CC1CCN(Cc2ccccc2)CC1 [cpd 42, 2-((1-benzylpiperidin-4-yl)methyl)-4-(3,4-dihydroisoquinolin-2(1H)-yl)pyridazin-3(2H)-one hydrochloride] | 25.4 | –
O=c1c(-c2ccccc2)cccn1C1CCN(Cc2ccccc2)CC1 [cpd 44, 1-(1-benzylpiperidin-4-yl)-3-phenyl-1,2-dihydropyridin-2-one hydrochloride] | 29.6 | –
O=c1c(-c2ccccc2)cncn1CC1CCN(Cc2ccccc2)CC1 [cpd 45, 3-((1-benzylpiperidin-4-yl)methyl)-5-phenylpyrimidin-4(3H)-one] | 75.7 | –
O=c1c(-c2ccccc2)cccn1CC1CCN(Cc2ccccc2)CC1 [cpd 46, 1-[(1-benzylpiperidin-4-yl)methyl]-3-phenyl-1,2-dihydropyridin-2-one hydrochloride] | 75.6 | –
